Values quoted from earlier work as cited in US20090196935A1, “Pharmaceutical Capsules Comprising Extended Release Dipyridamole Pellets” (priority 2008, published 2009).

Experiments:
[1] = in vivo
[2] = not given; remark: listed apart in the source

- biological half-life [1]: less than one hour
- solubility in acidic mediums (acidic mediums with a pH below 4): soluble
- solubility in dilute acids (dilute acids): soluble
- solubility in water (water): practically insoluble
- solubility in water at a pH greater than 4 (water at a pH greater than 4): practically insoluble
- solubility (weak base, medium not stated): poor solubility
- pKa [2]: 6.1
SMILES: OCCN(CCO)c1nc(N2CCCCC2)c2nc(N(CCO)CCO)nc(N3CCCCC3)c2n1 [Dipyridamole, 2,6-bis-(diethanolamino)-4,8-dipiperidino-(5,4-d)-pyrimidine]
